We go through 23 compounds from ChEMBL document CHEMBL3875178, “Discovery of oral-available resveratrol-caffeic acid based hybrids inhibiting acetylated and phosphorylated STAT3 protein” (Eur J Med Chem, 2016).

A short description of data set [1]: Growth inhibition of human MDA-MB-231 cells after 48 hrs by MTT assay. It is filed as functional, cell-based. The note with it: MDA-MB-231, 48 h. On the technique in general: Tetrazolium dyes change colour on reduction, which living cells bring about.
The nature of data set [2]: Growth inhibition of human HT-29 cells after 48 hrs by MTT assay. It is filed as functional, cell-based. The note with it: HT-29, 48 h.
Data set [3] deals with HT-29. In words: Potency index, ratio of resveratrol IC50 to compound IC50 for human HT-29 cells. Format: functional.
Data set [4] relates to Mus musculus. As to the kind of experiment: Toxicity in Kunming mouse implanted with mouse 4T1 cells assessed as body weight loss at 1 mg/kg, ip administered once in 4 days for 14 days measured during compound dosing. Format: organism-based. The note with it: in vivo.

SMILES strings stand for the structures.

With `COc1cc(/C=C/c2ccc(NC(=O)/C=C/c3ccccn3)cc2)cc(OC)c1`, the IC50 (as a rule, the concentration at which inhibition is half-maximal) came to 3.4 µM in data set [1] and 6.12 µM in data set [2].
On the same counts, the results for `COc1cc(/C=C/c2ccc(OC(=O)/C=C/c3ccc([N+](=O)[O-])cc3)cc2)cc(OC)c1` are 18 µM and above 20 µM.
Turning to `COc1cc(/C=C/c2ccc(NC(=O)/C=C/c3ccc(O)c(O)c3)cc2)cc(OC)c1`, the IC50 worked out at 4.23 µM in data set [1] and 1.56 µM in data set [2].
With `COc1cc(/C=C/c2ccc(NC(=O)/C=C/c3ccc(C(F)(F)F)cc3)cc2)cc(OC)c1`, the figures for the IC50 in data set [1] and in data set [2] were 3.52 µM and 1.78 µM, respectively.
For the compound `COc1cc(/C=C/c2ccc(NC(=O)/C=C/c3ccc(Cl)cc3)cc2)cc(OC)c1`, the IC50 in data set [1] was 14.1 µM; in data set [2] it was 10.3 µM.
As to `COc1cc(/C=C/c2ccc(OC(=O)/C=C/c3ccc(F)cc3)cc2)cc(OC)c1`, the IC50 in data set [1] was 6.21 µM; in data set [2], 7.77 µM.
`COc1cc(/C=C/c2ccc(OC(=O)/C=C/c3ccc(C(F)(F)F)cc3)cc2)cc(OC)c1`: the figures for the IC50 in data set [1] and in data set [2] were 6.91 µM and 9.09 µM, respectively.
For the compound `COc1cc(/C=C/c2ccc(NC(=O)/C=C/c3ccc(OC)c(OC)c3)cc2)cc(OC)c1`, the IC50 in data set [1] stood at 7.74 µM; in data set [2], 0.96 µM. Moreover, the “Ratio IC50” value in data set [3] is on record as above 50.
Take `COc1ccc(/C=C/C(=O)Nc2ccc(/C=C/c3cc(OC)cc(OC)c3)cc2)cc1`: the results for the IC50 in data set [1] and in data set [2] were 4.23 µM and 5.96 µM, respectively.
On the same counts, the results for `COc1cc(/C=C/c2ccc(NC(=O)/C=C/c3cccc(F)c3)cc2)cc(OC)c1` are 17.3 µM and 16.8 µM.
On to `COc1cc(/C=C/c2ccc(NC(=O)/C=C/c3ccc(Br)cc3)cc2)cc(OC)c1`, for which the 50% inhibitory concentration (IC50) stood at 6.16 µM in data set [1] and 5.26 µM in data set [2].
As to `COc1cc(/C=C/c2ccc(NC(=O)/C=C/c3ccccc3)cc2)cc(OC)c1`, the values for the IC50 in data set [1] and in data set [2] were 2.01 µM and 1.75 µM, respectively.
For the compound `COc1cc(/C=C/c2ccc(NC(=O)/C=C/c3ccccc3F)cc2)cc(OC)c1`, the concentration for half-maximal inhibition (IC50) was determined as 2.38 µM in data set [1] and 2.82 µM in data set [2].
In the case of `Oc1ccc(/C=C/c2cc(O)cc(O)c2)cc1` [RESVERATROL], the IC50 in data set [1] and in data set [2] was above 100 µM in each case.
As to `COc1cc(/C=C/c2ccc(NC(=O)/C=C/c3ccc(F)cc3)cc2)cc(OC)c1`, the IC50 in data set [1] came out at 9.39 µM; in data set [2], 11.6 µM.
Consider `COc1cc(/C=C/c2ccc(OC(=O)/C=C/c3cc(OC)c(OC)c(OC)c3)cc2)cc(OC)c1`, for which the figures for the IC50 in data set [1] and in data set [2] were 3.08 µM and 2.91 µM, respectively.
In the case of `O=C(O)/C=C/c1ccc(O)c(O)c1` [CAFFEIC ACID], the IC50 in data set [1] and in data set [2] was above 100 µM throughout.
As for `COc1cc(/C=C/c2ccc(OC(=O)/C=C/c3ccccc3)cc2)cc(OC)c1`, the concentration for half-maximal inhibition (IC50) turned out to be 9.81 µM in data set [1] and 9.05 µM in data set [2].
`COc1cc(/C=C/c2ccc(NC(=O)/C=C/c3ccc(C#N)cc3)cc2)cc(OC)c1`: the IC50 in data set [1] was found to be 7.74 µM; in data set [2], 3.32 µM.
As for `COc1cccc2c1C(=O)c1c(O)c3c(c(O)c1C2=O)C[C@@](O)(C(=O)CO)C[C@@H]3O[C@H]1C[C@H](N)[C@H](O)[C@H](C)O1` [DOXORUBICIN], the Activity result in data set [4] was “Toxic”.
Turning to `COc1cc(/C=C/c2ccc(NC(=O)/C=C/c3ccc(F)cc3F)cc2)cc(OC)c1`, the values for the IC50 in data set [1] and in data set [2] were above 20 µM and 18.1 µM, respectively.
Regarding `COc1cc(/C=C/c2ccc(NC(=O)/C=C/c3cc(OC)c(O)c(OC)c3)cc2)cc(OC)c1`, the IC50 in data set [1] is 7.13 µM; in data set [2], 3.08 µM.
Regarding `COc1cc(/C=C/c2ccc(NC(=O)/C=C/c3ccc([N+](=O)[O-])cc3)cc2)cc(OC)c1`, the IC50 in data set [1] was found to be 11.7 µM; in data set [2] it was 10.7 µM.
